Article PMC4721545 (Bioscience Reports, 2015)
Like-named read-outs stand apart in the source and are kept apart here.

How the values were obtained:
EAE in C57BL/6 mice [1] = experiment: Chronic EAE induced with MOG35-55, clinical score and body weight; assay type: in vivo, mouse; conditions: 800 μg/200 μl daily i.p., day 3 to 27 p.i.; for mean clinical score: EAE control 1.29±1.08, P<0.001; for maximum clinical score: EAE control 2.78; for body weight loss vs EAE mice: P<0.001
Experimental: Female C57BL/6 mice (8–10 weeks old and 18–20 g of body weight) were purchased from Vital River Laboratory Animal Technology Co. Ltd. All experiments were conducted in accordance with the guidelines of the International Council for Laboratory Animal Science. The study was approved by the Ethics Committee of Shanxi Datong University. […].
Mouse myelin oligodendrocyte glycoprotein peptide 35–55 (MOG35–55, MEVGW […]) was produced in an automatic synthesizer (CL. Bio-Scientific Company). The purity of the peptide was >95% as determined by HPLC. Chronic EAE was induced by subcutaneous immunization on the upper dorsal flanks with 300 μg of MOG35–55 in Freund's complete adjuvant (Sigma) supplemented with 3 mg/ml of M. Tuberculosis H37Ra (BD Difco; […]). Mice were injected intraperitoneally (i.p.) with 500 ng of pertussis toxin (Enzo Life Sciences) on days 0 and 2 post-immunization (p.i.). Animals were weighed and evaluated for clinical score every other day in a blinded fashion by at least two investigators. Clinical score of EAE was graded according to the following criteria: 0: healthy; 1: limp tail; 2: ataxia and/or paresis of hind limbs; 3: paralysis of hind limbs and/or paresis of forelimbs; 4: tetraparalysis; and 5: moribund or death. When the clinical score of EAE reaches 3, we give suitable care including softening of food with water in dish and additional nutrients such as egg, making mice easy to obtain food and nutrition.
Mice were divided into three groups: Fasudil-treated group (n=8), FSD-C10-treated group (n=8) and double-distilled water (ddH2O) EAE control group (n=9). […] Mice were i.p. injected with 800 μg/200 μl/daily from day 3 to day 27 p.i. Mice that received the same volume of ddH2O i.p. served as control.

BV-2 microglia [2] = experiment: MTT cell viability assay, BV-2 microglia; assay type: cell-based; conditions: 24 h
Experimental: (§1) The BV-2 immortalized microglial cell line was purchased from ShenKe Biological Technology Co. and cultured in Dulbecco's modified Eagle's medium (DMEM; Gibco), supplemented with 10% FBS (Gibco), 100 units/ml penicillin and 100 μg/ml streptomycin (Gibco) at 37°C in a humidified cell incubator under a 95%/5% (v/v) mixture of air and CO2. Cells were plated on a 96-well plate at a density of 1.0×10^6 /ml (200 μl/well), on a 24-well plate at 1.0×10^6/ml (500 μl/well) and at 0.2×10^6 /ml (500 μl/well) for different experiments.
(§2) Cell viability of BV-2 microglia and primary neurons was detected by MTT assay. In brief, 100 μl of MTT solution (0.5 mg ml^−1, Duchefa) was added to cultured cells and incubated for an additional 4 h at 37°C, until the medium turned purple. Absorbance at 570 nm was measured by a microplate reader after addition of 100 μl DMSO. Each experiment was performed in triplicate and repeated three times with separate cell preparations. Results were expressed as a percentage of the control value at 570 nm.

primary neurons [3] = experiment: LDH release cell death assay, primary neurons; assay type: cell-based; conditions: 24 h
Experimental: (§3) Embryonic 18-day-mouse cortex (Shanghai SLAC Laboratory Animal Co. Ltd) were dissected under a microscope and then triturated into the suspension in Neurobasal-A-medium (Gibco) supplemented with 2% B27 (Gibco), 100 units/ml penicillin and 100 μg/ml streptomycin (Gibco). The cells were then plated on cover slips coated with poly-D-lysine (0.1 mg/ml; Sigma) at a density of 1×10^6 cells per cm^2 at 37°C in a humidified cell incubator under a 95%/5% (v/v) mixture of air and CO2, with the cell media being replaced every 48 h. After 7 days, neurons were incubated with different conditioned medium.
(§4) The death of BV-2 microglia and primary neurons was measured by LDH release in the culture medium. Levels of LDH release in supernatants of cultured cells were measured using the cytotoxicity detection kit (Promega) according to the manufacturer's protocol. Maximum LDH release (A570) was determined following the treatment of cells with lysis buffer and considered as control value (100% LDH release). Data were expressed as a percentage of the control value.

primary neurons [4] = experiment: MTT cell viability assay, primary neurons; assay type: cell-based, mouse; conditions: 24 h
Experimental: as §3, §2

primary neurons [5] = experiment: Neurite outgrowth of primary neurons (MAP-2 staining, Image J); assay type: cell-based, mouse; conditions: PBS control 4.1 μm; P<0.01
Experimental: as §3
(§5) Fluorescent photomicrographs of neurons with microtubule-associated protein-2 (MAP-2) staining or photomicrographs of BV-2 cells under inverted microscope were captured with a 20× objective and a digital camera of Olympus microscope. Images were acquired from randomly selected fields for each group. The length of the longest neurite outgrown or dendritic formation in the cell body was measured by an investigator blinded to the experimental groups using a public-domain image-processing program (Image J, http://rsb.info.nih.gov/ij). Average lengths of neuronal neurite or dendritic formation were used for quantification.

[6] = system: iNOS and Arg-1 expression in brain; experiment: Western blot of iNOS and Arg-1 in brain of EAE mice (M1/M2 polarization); assay type: in vivo, mouse; conditions: day 28 p.i.
Experimental: (§6) Mice were divided into three groups: Fasudil-treated group (n=8), FSD-C10-treated group (n=8) and double-distilled water (ddH2O) EAE control group (n=9). […] Mice were i.p. injected with 800 μg/200 μl/daily from day 3 to day 27 p.i. Mice that received the same volume of ddH2O i.p. served as control. Protein from brains was homogenized on ice with an extraction kit and protein concentration was determined by a Bradford protein assay. Protein extracts (30 μg) were separated by SDS/PAGE and transferred on to a PVDF membrane (Immobilon-P; Millipore Corp.). The membranes were then incubated with anti-GDNF (glial cell line-derived neurotrophic factor; 1:1000, Epitomics), anti-BDNF (brain-derived neurotrophic factor; 1:1000, Promega), anti-NT-3(neurotrophin-3; 1:1000, Epitomics), anti-Nogo(1:1000, Epitomics), anti-iNOS (inducible nitric oxide synthase) (1:1000, Cell Signaling Technology) […], anti-arginase-1 ([…]) (1:1000, BD Bioscience) and anti-β-actin (1:10000, Cell Signaling Technology) for overnight at 4°C. Bands were visualized by horseradish peroxidase (HRP-) conjugated secondary antibodies and ECL kit under ECL system (GE Healthcare Life Sciences).

BV-2 microglia [7] = experiment: Dendritic formation of BV-2 microglia (Image J); assay type: cell-based; conditions: for breakage of dendritic branches on BV-2 microglia: 75 and 200 μg/ml; for dendritic length of BV-2 microglia (mean): PBS control 2.94 μm, P<0.001
Experimental: as §1, §5

EAE in C57BL/6 mice [8] = system: EAE in C57BL/6 mice; parameters: method as in PMID 24749492; conditions: previous studies; cited from earlier work
[9] = system: BDNF, GDNF, NT-3, Nogo protein in brain; experiment: Western blot of neurotrophic factors and Nogo in brain of EAE mice; assay type: in vivo, mouse; conditions: day 28 p.i., vs control EAE mice; for expression of BDNF protein in brain / expression of GDNF protein in brain / expression of NT-3 protein in brain: P<0.05
Experimental: as §6

C57BL/6 mice = experiment: Test of vasodilation in naive mice; assay type: in vivo; conditions: healthy mice, 800 μg/mouse i.p., after 30 and 60 min
ROCK I = biological target: T1, ROCK I (Homo sapiens, UniProt Q13464); experiment: ROCK inhibition by mobility shift assay, ROCK I; assay type: biochemical; conditions: ATP con. 3.6 μM
T1 construct: purchased Carna
Experimental: (§7) Staurosporine (Sigma) was used as positive control and saline was used as negative control.
(§8) DMSO (100 μl) was added to two empty wells for no compound control and no enzyme control in the same 96-well plate. Mobility shift assay was performed according to the manufacturer's protocol. […] The mixtures (5 μl) were incubated with 2.5× enzyme solution (10 μl) in 384-well plate at room temperature for 10 min and control was performed by adding 5 μl of kinase buffer.
(§9) Percentinhibition=max−conversion/max−min×100
(§10) where max stands for DMSO control; min stands for low control.

BV-2 microglia [10] = experiment: LDH release cell death assay and morphology, BV-2 microglia; assay type: cell-based; conditions: for BV-2 microglia cell death / morphology: 75 μg/ml and 200 μg/ml, 48 h culture; for death of BV-2 microglia (LDH release): 24 h
Experimental: as §1, §4

ROCK II = biological target: T2, ROCK II (Homo sapiens, UniProt O75116); experiment: ROCK inhibition by mobility shift assay, ROCK II; assay type: biochemical; conditions: ATP con. 5.3 μM
T2 construct: purchased Carna
Experimental: as §7, §8, §9, §10

mice = assay type: in vivo; conditions: within 2 h
Experimental: […]. […] Given that FSD-C10 was well tolerant in vivo, further pre-clinical studies are valuable for the treatment of MS.
[…]. […] TEXT PRINTED IN THE PICTURE: (b) Fasudi: Mortality (%): 0% (800 μg /mouse/day); Mortality (%): 33% (1600 μg /mouse/day); Mortality (%): 67% (2000 μg /mouse/day) | (b) FSD-C10: Mortality (%): 0% (800 μg /mouse/day); Mortality (%): 0% (1600 μg /mouse/day); Mortality (%): 0% (2000 μg /mouse/day)

T1 sequence (Q13464 whole entry): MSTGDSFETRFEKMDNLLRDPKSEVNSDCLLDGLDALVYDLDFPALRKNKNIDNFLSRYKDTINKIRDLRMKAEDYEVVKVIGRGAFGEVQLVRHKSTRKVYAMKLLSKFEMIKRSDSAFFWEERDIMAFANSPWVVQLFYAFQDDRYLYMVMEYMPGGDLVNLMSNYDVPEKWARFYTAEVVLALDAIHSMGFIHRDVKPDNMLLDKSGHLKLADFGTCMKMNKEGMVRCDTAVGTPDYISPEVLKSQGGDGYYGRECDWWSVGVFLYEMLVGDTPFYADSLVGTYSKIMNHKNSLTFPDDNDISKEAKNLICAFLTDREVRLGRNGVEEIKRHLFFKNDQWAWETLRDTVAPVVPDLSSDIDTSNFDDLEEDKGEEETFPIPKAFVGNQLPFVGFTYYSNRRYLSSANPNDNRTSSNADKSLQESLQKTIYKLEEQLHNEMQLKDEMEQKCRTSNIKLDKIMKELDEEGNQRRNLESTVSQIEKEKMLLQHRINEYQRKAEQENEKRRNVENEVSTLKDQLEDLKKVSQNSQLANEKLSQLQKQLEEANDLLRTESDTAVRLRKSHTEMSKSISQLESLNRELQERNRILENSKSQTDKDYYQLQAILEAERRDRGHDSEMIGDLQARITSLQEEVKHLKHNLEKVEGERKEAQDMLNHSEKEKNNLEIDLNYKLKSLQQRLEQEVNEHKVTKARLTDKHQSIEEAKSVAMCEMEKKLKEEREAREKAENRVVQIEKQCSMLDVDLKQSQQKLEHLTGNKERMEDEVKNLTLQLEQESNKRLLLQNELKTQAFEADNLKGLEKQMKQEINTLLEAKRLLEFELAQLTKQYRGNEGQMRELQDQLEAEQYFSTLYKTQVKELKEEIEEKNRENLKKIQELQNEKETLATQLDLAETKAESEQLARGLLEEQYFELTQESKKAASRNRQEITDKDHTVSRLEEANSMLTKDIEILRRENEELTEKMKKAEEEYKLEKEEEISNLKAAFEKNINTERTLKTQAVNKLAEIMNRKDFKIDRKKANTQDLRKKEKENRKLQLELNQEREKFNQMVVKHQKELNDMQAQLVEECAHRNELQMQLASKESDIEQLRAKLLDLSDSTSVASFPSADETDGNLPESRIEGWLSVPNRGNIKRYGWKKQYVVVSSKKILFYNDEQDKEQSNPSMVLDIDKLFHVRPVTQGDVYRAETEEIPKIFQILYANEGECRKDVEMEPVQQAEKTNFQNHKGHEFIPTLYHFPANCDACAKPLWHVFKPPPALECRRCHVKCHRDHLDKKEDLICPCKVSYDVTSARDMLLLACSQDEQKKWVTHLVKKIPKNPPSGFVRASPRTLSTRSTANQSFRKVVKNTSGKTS
T2 sequence (O75116 whole entry): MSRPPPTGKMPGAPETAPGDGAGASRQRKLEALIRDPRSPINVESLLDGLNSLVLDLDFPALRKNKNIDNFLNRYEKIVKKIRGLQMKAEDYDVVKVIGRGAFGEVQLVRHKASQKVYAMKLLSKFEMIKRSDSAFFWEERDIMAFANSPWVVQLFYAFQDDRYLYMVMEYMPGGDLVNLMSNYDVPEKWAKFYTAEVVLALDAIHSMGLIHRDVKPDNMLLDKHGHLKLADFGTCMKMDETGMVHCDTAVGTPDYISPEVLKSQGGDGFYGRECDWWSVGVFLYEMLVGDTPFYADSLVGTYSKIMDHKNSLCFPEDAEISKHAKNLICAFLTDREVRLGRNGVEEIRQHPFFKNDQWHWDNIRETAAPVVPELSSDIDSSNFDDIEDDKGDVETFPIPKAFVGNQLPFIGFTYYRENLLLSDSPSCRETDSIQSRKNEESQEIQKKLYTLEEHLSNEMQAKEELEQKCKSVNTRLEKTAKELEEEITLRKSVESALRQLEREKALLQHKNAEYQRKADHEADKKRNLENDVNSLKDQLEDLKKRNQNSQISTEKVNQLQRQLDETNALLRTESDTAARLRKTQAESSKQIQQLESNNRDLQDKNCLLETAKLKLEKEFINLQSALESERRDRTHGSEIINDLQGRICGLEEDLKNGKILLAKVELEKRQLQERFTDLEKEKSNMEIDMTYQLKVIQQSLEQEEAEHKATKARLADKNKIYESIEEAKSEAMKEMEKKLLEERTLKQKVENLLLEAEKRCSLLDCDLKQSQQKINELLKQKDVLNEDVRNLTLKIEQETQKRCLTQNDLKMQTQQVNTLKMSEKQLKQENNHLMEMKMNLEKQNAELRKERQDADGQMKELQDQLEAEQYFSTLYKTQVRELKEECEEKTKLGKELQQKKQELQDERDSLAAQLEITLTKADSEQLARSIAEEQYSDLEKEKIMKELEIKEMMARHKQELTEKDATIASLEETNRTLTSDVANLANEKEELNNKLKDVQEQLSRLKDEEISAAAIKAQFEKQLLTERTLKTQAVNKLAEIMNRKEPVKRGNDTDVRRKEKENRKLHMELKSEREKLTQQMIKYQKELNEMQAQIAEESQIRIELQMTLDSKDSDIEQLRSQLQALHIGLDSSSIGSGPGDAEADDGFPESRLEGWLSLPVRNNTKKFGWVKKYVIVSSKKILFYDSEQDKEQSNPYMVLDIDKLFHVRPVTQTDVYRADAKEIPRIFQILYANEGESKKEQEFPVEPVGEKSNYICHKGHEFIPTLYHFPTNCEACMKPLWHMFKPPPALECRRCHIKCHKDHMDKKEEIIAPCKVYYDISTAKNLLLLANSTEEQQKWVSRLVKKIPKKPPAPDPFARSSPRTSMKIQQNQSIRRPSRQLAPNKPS

SMILES	mean clinical score (EAE in C57BL/6 mice [1])	maximum clinical score (EAE in C57BL/6 mice [1])	body weight loss vs EAE mice (EAE in C57BL/6 mice [1])	viability of BV-2 microglia (MTT) (BV-2 microglia [2]; 75 μg/ml, vs control)	viability of BV-2 microglia (MTT) (BV-2 microglia [2]; 0.6–15 μg/ml)	death of primary neurons (LDH release) (primary neurons [3]; 0.6–15 μg/ml)	viability of primary neurons (MTT) (primary neurons [4]; 75 μg/ml, vs control)	viability of primary neurons (MTT) (primary neurons [4]; 0.6–15 μg/ml)	neurite length of primary neurons (mean) (primary neurons [5]) [μm]	Arg-1 expression in brain [6]	iNOS expression in brain [6]	breakage of dendritic branches on BV-2 microglia (BV-2 microglia [7])	dendritic length of BV-2 microglia (mean) (BV-2 microglia [7]) [μm]	expression of Nogo protein in brain [9]	expression of BDNF protein in brain [9]	expression of GDNF protein in brain [9]	expression of NT-3 protein in brain [9]	vasodilation on the foot of mice (C57BL/6 mice)	BV-2 microglia cell death / morphology (BV-2 microglia [10])	death of BV-2 microglia (LDH release) (BV-2 microglia [10]; 0.6–15 μg/ml)	other results
O=S(=O)(c1cccc2cnccc12)N1CCC[C@H]1CCl [FSD-C10]	0.28±0.23	0.50	less body weight loss	did not lead to significant decrease	did not influence	did not influence	did not lead to significant decrease	did not influence	10.5	elevated	inhibited	did not cause significant breakage	12.5	slightly, although not significantly, declined	significantly enhanced	significantly enhanced	significantly enhanced	relatively weak vasodilator effect	good cell morphology	did not influence	death of primary neurons (LDH release) (primary neurons [3]; 75 μg/ml, vs control): did not lead to significant decrease; clinical severity of EAE (EAE in C57BL/6 mice [8]): ameliorated; IC50 (ROCK I): 1140 nM; death of BV-2 microglia (LDH release) (BV-2 microglia [10]; 75 μg/ml, vs control): did not lead to significant decrease; BV-2 cell death at higher doses with the extension of time (BV-2 microglia [10]; ≥200 μg/ml, result not shown): caused cell death; IC50 (ROCK II): 711 nM
Cl.O=S(=O)(c1cccc2cnccc12)N1CCCNCC1 [Fasudil, hexahydro-1-(5-isoquinolinyl-sulfonyl)-1H-1,4-diazepine monohydrochloride, reference compound]	0.04±0.07	0.19	less body weight loss	significant decrease	did not influence	did not influence	significant decrease	did not influence	6.6	elevated	inhibited	caused significant breakage	12.5	slightly, although not significantly, declined	significantly enhanced	significantly enhanced	significantly enhanced	obvious vasodilation	obvious cell death	did not influence	Mortality (%) (mice; 800 μg/mouse i.p.): 0%; Mortality (%) (mice; 1600 μg/mouse i.p.): 33%; Mortality (%) (mice; 2000 μg/mouse i.p.): 67%
